The numbers were not newly measured in US20240050950A1, “GRADIENT-BASED MICROFLUIDIC CIRCUIT, DEVICE, AND METHOD FOR PERFORMING AN ASSAY” (priority 2020, published 2024), which cites them from elsewhere.

Where a name gives a salt, the structure may show the parent alone. Bridge positions count the residues as written; N and C are the ends. Square brackets hold non-standard residues; d marks the D form. Peptide text beside a SMILES is read from it. * marks the point of attachment. Ileψ(thiazoline)Cys = CC[C@H](C)[C@H](N)C1=N[C@H](C(=O)*)CS1; dOrn = NCCC[C@@H](N)C(=O)O

The conditions of one series: Table 1, antimicrobial agents/drugs; cited from earlier work.
As for `COc1ccc(C[C@H]2NC[C@H](O)[C@H]2OC(C)=O)cc1` [Anisomycin (or, Flagecidin), Anisomycin], the Molar volume is recorded as 218.6 ± 5.0 cm^3.
For `C[C@@]1(CO)[C@H](O)CC[C@@]2(C)[C@H]1CC[C@H]1C[C@@H]3C[C@@]12CC[C@]3(O)CO` [Aphidicolin], the Molar volume is given as 275.9 ± 5.0 cm^3.
For the compound `COC[C@@H](C[C@H]1O[C@@](O)([C@H](O)[C@@H]2C[C@H](OC)[C@@H](O)CC/C=C(C)/C=C/[C@@H](O[C@@H]3O[C@@H](C)[C@H](OC)[C@@H](O)[C@@H]3O)[C@H](C)/C=C(C)/C=C(C)/C=C(\C)C(=O)O2)[C@H](C)[C@@H](O)[C@H]1C)OC1C[C@](C)(O)[C@@H](O[C@H]2C[C@@H](OC)[C@H](O)[C@@H](C)O2)[C@H](C)O1` (stereo partly drawn) [Apoptolidin (FU 40A), Apoptolidin], the Molar volume is listed as 898.5 ± 5.0 cm^3.
On to `CN[C@@H]1[C@@H](O[C@H]2O[C@H](CO)[C@@H](N)[C@H](O)[C@H]2O)OC2C[C@@H](N)[C@@H](O[C@H]3[C@H](O)[C@@H](O)[C@H](N)C[C@@H]3N)OC2[C@@H]1O` (stereo partly drawn) [Apramycin (Nebramycin II), Apramycin], for which the Molar volume is reported as 344.4 ± 5.0 cm^3.
With `CC(/C=C/[C@@]1(C)[C@H](C)CCC(=O)[C@@H]1C)=C\Cc1c(O)c(Cl)c(C)c(C=O)c1O` [Ascochlorin (Ilicicolin D, NSC 287492), Ascochlorin], the Molar volume is given as 337.6 ± 3.0 cm^3.
`CC[C@@H]1/C=C(\C)C[C@H](C)C[C@H](OC)[C@H]2O[C@@](O)(C(=O)C(=O)N3CCCC[C@H]3C(=O)O[C@H](/C(C)=C/[C@@H]3CC[C@@H](O)[C@H](OC)C3)[C@H](C)[C@@H](O)CC1=O)[C@H](C)C[C@@H]2OC` [Ascomycin (KD4185000), Ascomycin]: the Molar volume is 661.8 ± 5.0 cm^3.
As to `CC[C@H]1OC(=O)[C@H](C)[C@@H](O[C@H]2C[C@@](C)(OC)[C@@H](O)[C@H](C)O2)[C@H](C)[C@@H](O[C@@H]2O[C@H](C)C[C@H](N(C)C)[C@H]2O)[C@](C)(O)C[C@@H](C)CN(C)[C@H](C)[C@@H](O)[C@]1(C)O` [Azithromycin], the Molar volume is 632.6 ± 5.0 cm^3.
As to `CC[C@H](C)[C@H](N)C1=N[C@H](C(=O)N[C@@H](CC(C)C)C(=O)N[C@H](CCC(=O)O)C(=O)N[C@H](C(=O)N[C@H]2CCCCNC(=O)[C@H](CC(N)=O)NC(=O)[C@@H](CC(=O)O)NC(=O)[C@H](Cc3cnc[nH]3)NC(=O)[C@@H](Cc3ccccc3)NC(=O)[C@H]([C@@H](C)CC)NC(=O)[C@@H](CCCN)NC2=O)[C@@H](C)CC)CS1` [Bacitracin] ({Ileψ(thiazoline)Cys}-L[dE]IK[dOrn]I[dF]H[dD]N; lactam 4-C), the Molar volume is on record as 994.4 ± 7.0 cm^3.
`CO/C1=C\C(C)=C\[C@@H](C)[C@@H](O)[C@@H](C)C/C(C)=C/C=C/[C@H](OC)[C@@H]([C@@H](C)[C@@H](O)[C@H](C)[C@@]2(O)C[C@@H](O)[C@H](C)[C@@H](C(C)C)O2)OC1=O` [Bafilomycin A1 (4730700), Bafilomycin A1]: the Molar volume is 552.3 ± 5.0 cm^3.
Regarding `CO/C1=C\C(C)=C\[C@@H](C)[C@@H](O)[C@@H](C)C/C(C)=C/C=C/[C@H](OC)[C@@H]([C@@H](C)[C@@H](O)[C@H](C)[C@@]2(O)C[C@@H](OC(=O)/C=C/C(=O)NC3=C(O)CCC3=O)[C@H](C)[C@@H](C(C)C)O2)OC1=O` [Bafilomycin B1], the Molar volume is 667.1 ± 5.0 cm^3.
As for `CC(C)C[C@H](NC(=O)[C@@H](O)[C@H](N)Cc1ccccc1)C(=O)O` [Bestatin (Ubenimex), Bestatin], the Molar volume is on record as 257.5 ± 3.0 cm^3.
With `Oc1c(Cl)cc(Cl)cc1Sc1cc(Cl)cc(Cl)c1O` [Bithionol], the Molar volume is recorded as 202.7 ± 5.0 cm^3.
As to `CN(CC[C@H](N)CC(=O)N[C@H]1C=C[C@H](n2ccc(N)nc2=O)O[C@@H]1C(=O)O)C(=N)N` [Blasticidine (Blasticidin S), Blasticidin S], the Molar volume was 261.9 ± 7.0 cm^3.
For `C[C@@H]1C[C@H](C)C[C@H](C)[C@@H](O)CC(=O)O[C@H]([C@@H]2CCC[C@H]2C(=O)O)C/C=C/C=C(/C#N)[C@H](O)[C@@H](C)C1` [Borrelidin], the Molar volume is listed as 426.5 ± 5.0 cm^3.
`C[C@H]1CCC/C=C/[C@@H]2C[C@H](O)C[C@H]2[C@H](O)/C=C/C(=O)O1` [Brefeldin A]: the Molar volume is recorded as 252.9 ± 3.0 cm^3.
As to `COc1cc(/C=N/O)nc(-c2ccccn2)c1` [Caerulomycin A], the Molar volume is 185.8 ± 7.0 cm^3.
Regarding `N[C@@H](C(=O)N[C@@H]1C(=O)N2C(C(=O)O)=C(Cl)CS[C@H]12)c1ccccc1` [Cefaclor], the Molar volume is 226.4 ± 5.0 cm^3.
Take `CC1=C(C(=O)O)N2C(=O)[C@@H](NC(=O)[C@H](N)c3ccccc3)[C@H]2SC1` [Cefalexin]: the Molar volume is given as 231.3 ± 5.0 cm^3.
With `CO[C@@]1(NC(=O)CSCC#N)C(=O)N2C(C(=O)O)=C(CSc3nnnn3C)CS[C@@H]21` [Cefmetazole], the Molar volume is reported as 268.3 ± 7.0 cm^3.
For the compound `NC(=O)c1cc[n+](CC2=C(C(=O)O)N3C(=O)[C@@H](NC(=O)[C@@H](c4ccccc4)S(=O)(=O)[O-])[C@H]3SC2)cc1` [Cefsulodin (Ulfaret), Cefsulodin], the Molar volume is reported as 316.5 ± 7.0 cm^3.
With `CC(C)(O/N=C(\C(=O)N[C@@H]1C(=O)N2C(C(=O)[O-])=C(C[n+]3ccccc3)CS[C@H]12)c1csc(N)n1)C(=O)O` [Ceftazidime], the Molar volume was 330.2 ± 7.0 cm^3.
As to `CO/N=C(\C(=O)N[C@@H]1C(=O)N2C(C(=O)O)=C(CSc3nc(=O)c(=O)[nH]n3C)CS[C@H]12)c1csc(N)n1` [Ceftriaxone], the Molar volume is recorded as 281.7 ± 7.0 cm^3.
In the case of `C/C=C(\C)C(=O)N[C@@H](c1ccccc1)[C@@H](O)C(=O)O[C@H]1C[C@@]2(O)[C@@H](OC(=O)c3ccccc3)[C@@H]3[C@]4(OC(C)=O)CO[C@@H]4C[C@H](O)[C@@]3(C)C(=O)[C@H](OC(C)=O)C(=C1C)C2(C)C` [Cephalomannine (NSC 318735), Cephalomannine], the Molar volume is on record as 609.9 ± 5.0 cm^3.
`CC(=O)OCC1=C(C(=O)O)N2C(=O)[C@@H](NC(=O)Cc3cccs3)[C@H]2SC1` [Cephalothin (Cefalotin), Cephalothin]: the Molar volume was 252.7 ± 5.0 cm^3.
In the case of `CC1=C(C(=O)O)N2C(=O)[C@@H](NC(=O)[C@H](N)C3=CCC=CC3)[C@H]2SC1` [Cephradine (Cefradine), Cephradine], the Molar volume is reported as 237.2 ± 5.0 cm^3.
With `C/C=C/C/C=C/CCC(=O)[C@H]1O[C@H]1C(N)=O` [Cerulenin], the Molar volume is 196.7 ± 3.0 cm^3.

Still in this series, the particulars now being: Table 2, anticancer drugs; cited from earlier work.
Consider `CNC(=O)c1ccc(N2C(=S)N(c3cnc(C#N)c(C(F)(F)F)c3)C(=O)C23CCC3)cc1F` [Apalutamide], for which the Molar volume is reported as 300.1 ± 5.0 cm^3.
As for `C[C@@H](O[C@H]1OCCN(Cc2n[nH]c(=O)[nH]2)[C@H]1c1ccc(F)cc1)c1cc(C(F)(F)F)cc(C(F)(F)F)c1` [Aprepitant], the Molar volume is on record as 353.5 ± 7.0 cm^3.
For `C=C1C[C@@H]2[C@H](CC[C@]3(C)C(=O)CC[C@@H]23)[C@@]2(C)C=CC(=O)C=C12` [Aromasin (Exemestane), Exemestane], the Molar volume is given as 260.5 ± 5.0 cm^3.
`COc1nc(N)nc2c1ncn2[C@@H]1O[C@H](CO)[C@@H](O)[C@@H]1O` [Arranon (Nelarabine), Nelarabine]: the Molar volume is given as 149.8 ± 7.0 cm^3.
Turning to `N=C(N)NCc1cccc([131I])c1` [Azedra], the Molar volume is 148.6 ± 7.0 cm^3.
Turning to `O=C(/C=C/c1cccc(S(=O)(=O)Nc2ccccc2)c1)NO` [Beleodaq (Belinostat), Belinostat], the Molar volume is 222.9 ± 3.0 cm^3.
`C=C(c1ccc(C(=O)O)cc1)c1cc2c(cc1C)C(C)(C)CCC2(C)C` [Bexarotene (Targretin), Bexarotene]: the Molar volume is reported as 334.2 ± 3.0 cm^3.
As for `Cn1cnc2c(F)c(Nc3ccc(Br)cc3F)c(C(=O)NOCCO)cc21` [Binimetinib], the Molar volume is listed as 264.1 ± 7.0 cm^3.
`CC(C)C[C@H](NC(=O)[C@H](Cc1ccccc1)NC(=O)c1cnccn1)B(O)O` [Bortezomib (Velcade), Bortezomib]: the Molar volume is listed as 316.5 ± 3.0 cm^3.
Turning to `COC(=O)N[C@@H](C)CNc1nccc(-c2cn(C(C)C)nc2-c2cc(Cl)cc(NS(C)(=O)=O)c2F)n1` [Braftovi (Encorafenib), Encorafenib], the Molar volume is 371.6 ± 7.0 cm^3.
On to `CS(=O)(=O)OCCCCOS(C)(=O)=O` [Busulfan], for which the Molar volume is reported as 182.3 ± 3.0 cm^3.
Consider `CO[C@H]1C(=O)[C@]2(C)[C@@H](OC)C[C@H]3OC[C@@]3(OC(C)=O)[C@H]2[C@H](OC(=O)c2ccccc2)[C@]2(O)C[C@H](OC(=O)[C@H](O)[C@@H](NC(=O)OC(C)(C)C)c3ccccc3)C(C)=C1C2(C)C` [Cabazitaxel], for which the Molar volume is recorded as 635.1 ± 5.0 cm^3.
For the compound `CCCCCOC(=O)Nc1nc(=O)n([C@@H]2O[C@H](C)[C@@H](O)[C@H]2O)cc1F` [Capecitabine (Xeloda), Capecitabine], the Molar volume is 240.5 ± 7.0 cm^3.
`O=c1[nH]cc(F)c(=O)[nH]1` [Carac (Fluorouracil-Topical, Tolak), Fluorouracil]: the Molar volume is on record as 84.5 ± 5.0 cm^3.
With `CC(C)C[C@H](NC(=O)[C@H](CCc1ccccc1)NC(=O)CN1CCOCC1)C(=O)N[C@@H](Cc1ccccc1)C(=O)N[C@@H](CC(C)C)C(=O)[C@@]1(C)CO1` [Carfilzomib (Kyprolis), Carfilzomib], the Molar volume is given as 619.5 ± 3.0 cm^3.
For the compound `Cc1cc(Nc2ncc(Cl)c(Nc3ccccc3S(=O)(=O)C(C)C)n2)c(OC(C)C)cc1C1CCNCC1` [Ceritinib (Zykadia), Ceritinib], the Molar volume is reported as 445.9 ± 3.0 cm^3.
`COc1cccc2c1C(=O)c1c(O)c3c(c(O)c1C2=O)C[C@@](O)(C(C)=O)C[C@@H]3O[C@H]1C[C@H](N)[C@H](O)[C@H](C)O1` [Cerubidine (Daunorubicin Hydrochloride), Daunorubicin Hydrochloride]: the Molar volume was 339.4 ± 5.0 cm^3.
For the compound `O=C(O)CCCc1ccc(N(CCCl)CCCl)cc1` [Chlorambucil], the Molar volume was 243.6 ± 3.0 cm^3.

The series is the same for the next values; noted with them: Table 3, antifungal drugs and other molecules; cited from earlier work.
Take `CC[C@H](C)C[C@H](C)CCCCCCCCC(=O)N[C@H]1C[C@@H](O)[C@@H](NCCN)NC(=O)[C@@H]2[C@@H](O)CCN2C(=O)[C@H]([C@H](O)CCN)NC(=O)[C@H]([C@H](O)[C@@H](O)c2ccc(O)cc2)NC(=O)[C@@H]2C[C@@H](O)CN2C(=O)[C@H]([C@@H](C)O)NC1=O` [Caspofungin]: the Molar volume is given as 803.3 cm^3.
